Columns and labels:
[1] = tested on: HCT-116 cells; experiment: Test for inhibiting sphere-forming ability of cancer cells in the presence of BSA (Test Example 2); format: cell-based; settings: Homo sapiens, 96 h; HCT-116 spheres, 5% bovine serum albumin (BSA), 4 days, CellTiter-Glo; read-out: Sphere IC50 value (concentration for 50% inhibition of cell proliferation)
Method: (§1) HCT-116 cells were available from the American Type Culture Collection (ATCC). HCT-116 cells were cultured at 37° C. and 5% CO2 using the McCoy's 5a medium containing 10% fetal bovine serum (FBS) and 1% penicillin/streptomycin. […] The test compounds were added into each well to adjust the final concentration of DMSO to 0.1%, and the cells were cultured for 4 days.

[2] = tested on: HCT-116 cells; experiment: Inhibition of sphere-forming ability of cancer cells (Test Example 1); format: cell-based; settings: Homo sapiens, 96 h; HCT-116 spheres, non-adherent, serum-free, 4 days, CellTiter-Glo; read-out: Sphere IC50 value (concentration for 50% inhibition of cell proliferation)
Method: as §1

Structure (SMILES)	IC50 [1] [nM]	IC50 [2] [nM]
O=C(Nc1cn(Cc2cc(Cl)cc(Cl)c2)cn1)c1cnc(CO)c(C(F)F)c1 [Example 75, N-[1-(3,5-dichlorobenzyl)-1H-imidazol-4-yl]-5-(difluoromethyl)-6-(hydroxymethyl)nicotinamide]	50	< 10
CC(C)(O)c1ccc(C(=O)Nc2cn(Cc3cccc(C(F)(F)F)c3)cn2)cn1 [Example 5, 6-(2-Hydroxypropan-2-yl)-N-{1-[3-(trifluoromethyl)benzyl]-1H-imidazol-4-yl}nicotinamide]		8400
COCc1ccc(C(=O)Nc2cn(Cc3cccc(C(F)(F)F)c3)cn2)cn1 [Example 9]		5040
O=C(Nc1cn(Cc2cc(F)cc(Br)c2)cn1)c1cnc(CO)c(C(F)F)c1 [Example 76, N-[1-(3-bromo-5-fluorobenzyl)-1H-imidazol-4-yl]-5-(difluoromethyl)-6-(hydroxymethyl)nicotinamide]	60	50
O=C(Nc1cn(Cc2cc(F)cc(C(F)(F)F)c2)cn1)c1cnc(CO)c(C(F)F)c1 [Example 60, 5-(difluoromethyl)-N-{1-[3-fluoro-5-(trifluoromethyl)benzyl]-1H-imidazol-4-yl}-6-(hydroxymethyl)nicotinamide]	60	30
O=C(Nc1cn(Cc2cccc(C(F)(F)F)c2)cn1)c1cnc(C(O)CO)c(Cl)c1 (stereo not drawn) [Example 28]	4580	847
O=C(/C=C/c1ccc(CO)nc1)Nc1cn(Cc2cccc(C(F)(F)F)c2)cn1 [Example 51]	630	70
O=C(Nc1cn(Cc2cccc(C(F)(F)F)c2)cn1)c1cnc(CO)cn1 [Example 20]	313	53
CCc1cc(C(=O)Nc2cn(Cc3cccc(C(F)(F)F)c3)cn2)cnc1CO [Example 44, 5-Ethyl-6-(hydroxymethyl)-N-{1-[3-(trifluoromethyl)benzyl]-1H-imidazol-4-yl}nicotinamide]	5110	758
COc1cc(Cn2cnc(NC(=O)c3cnc(CO)c(C(F)F)c3)c2)cc(C(F)(F)F)c1 [Example 65, 5-(difluoromethyl)-6-(hydroxymethyl)-N-{1-[3-methoxy-5-(trifluoromethyl)benzyl]-1H-imidazol-4-yl}nicotinamide]	660	630
O=C(Nc1cn(Cc2cc(F)c(F)c(F)c2)cn1)c1ccc(CCO)nc1 [Example 13]	735	675
O=C(Nc1ccc(CO)nc1)c1cn(Cc2cc(F)c(F)c(F)c2)cn1 [Example 22, N-[6-(Hydroxymethyl)pyridin-3-yl]-1-(3,4,5-trifluorobenzyl)-1H-imidazole-4-carboxamide]	< 10	< 10
CNCc1ccc(C(=O)Nc2cn(Cc3cccc(C(F)(F)F)c3)cn2)cn1 [Example 26, 6-[(Methylamino)methyl]-N-{1-[3-(trifluoromethyl)benzyl]-1H-imidazol-4-yl}nicotinamide]		824
O=C(Nc1cn(Cc2ccc(F)c(C(F)(F)F)c2)cn1)c1cnc(CO)c(C(F)F)c1 [Example 57, 5-(difluoromethyl)-N-{1-[4-fluoro-3-(trifluoromethyl)benzyl]-1H-imidazol-4-yl}-6-(hydroxymethyl)nicotinamide]	50	< 10
O=C(/C=C/c1cnc(CO)c(Cl)c1)Nc1cn(Cc2cccc(C(F)(F)F)c2)cn1 [Example 52]	410	50
O=C(Nc1cn(Cc2cccc(C(F)(F)F)c2)cn1)c1cnc(CO)s1 [Example 40, 2-(Hydroxymethyl)-N-{1-[3-(trifluoromethyl)benzyl]-1H-imidazol-4-yl}-1,3-thiazole-5-carboxamide]	629	122
O=C(Nc1cn(Cc2cc(F)cc(Cl)c2)cn1)c1cnc(CO)c(C(F)F)c1 [Example 78, N-[1-(3-chloro-5-fluorobenzyl)-1H-imidazol-4-yl]-5-(difluoromethyl)-6-(hydroxymethyl)nicotinamide]	60	50
CC(C)(O)c1ccc(/C=C/C(=O)Nc2cn(Cc3cccc(C(F)(F)F)c3)cn2)cn1 [Example 53, (2E)-3-[6-(2-Hydroxypropan-2-yl)pyridin-3-yl]-N-{1-[3-(trifluoromethyl)benzyl]-1H-imidazol-4-yl}prop-2-enamide]	< 10000	7200
O=C(COc1ccc(CO)nc1)Nc1cn(Cc2cc(F)c(F)c(F)c2)cn1 [Example 2]	605	629
C=C(CO)c1ccc(C(=O)Nc2cn(Cc3cccc(C(F)(F)F)c3)cn2)cn1 [Example 15]	5770	710
O=C(Nc1cn(Cc2cccc(C(F)(F)F)c2)cn1)c1csc(CO)n1 [Example 7]	520	24
O=C(Nc1cn(Cc2cccc(C(F)(F)F)c2)cn1)c1ccc(/C=C/CO)nc1 [Example 14]		6040

Structure (SMILES)	IC50 [1] [nM]	IC50 [2] [nM]
O=C(Nc1cn(Cc2cccc(C(F)(F)F)c2)cn1)c1cnc(C(O)CO)c(F)c1 (stereo not drawn) [Example 27]	6230	695
O=C(Nc1cn(Cc2cc(F)c(F)c(F)c2)cn1)c1cnc(CO)c(Cl)c1 [Example 41, 5-Chloro-6-(hydroxymethyl)-N-[1-(3,4,5-trifluorobenzyl)-1H-imidazol-4-yl]nicotinamide]	59	51
O=C(Nc1cn(Cc2ccc(F)c(F)c2)cn1)c1cnc(CO)c(C(F)F)c1 [Example 54, N-[1-(3,4-difluorobenzyl)-1H-imidazol-4-yl]-5-(difluoromethyl)-6-(hydroxymethyl)nicotinamide]	603	148
O=C(Nc1cn(Cc2ccc(F)c(Cl)c2)cn1)c1cnc(CO)c(C(F)F)c1 [Example 61, N-[1-(3-chloro-4-fluorobenzyl)-1H-imidazol-4-yl]-5-(difluoromethyl)-6-(hydroxymethyl)nicotinamide]	30	< 10
COc1cc(C(=O)Nc2cn(Cc3cccc(C(F)(F)F)c3)cn2)cnc1CO [Example 33]		9800
O=C(Nc1cn(Cc2cc(F)c(F)c(F)c2)cn1)c1cnc(CO)c(Br)c1 [Example 38]	81	61
Cc1cc(CO)ncc1C(=O)Nc1cn(Cc2cccc(C(F)(F)F)c2)cn1 [Example 35]	6110	3760
C=Cc1cc(C(=O)Nc2cn(Cc3cccc(C(F)(F)F)c3)cn2)cnc1CO [Example 43, 5-Ethenyl-6-(hydroxymethyl)-N-{1-[3-(trifluoromethyl)benzyl]-1H-imidazol-4-yl}nicotinamide]	6510	5600
O=C(Nc1cn(Cc2cccc(C(F)(F)F)c2)cn1)c1cnc(CO)c(F)c1 [Example 30, 5-Fluoro-6-(hydroxymethyl)-N-{1-[3-(trifluoromethyl)benzyl]-1H-imidazol-4-yl}nicotinamide]	563	69
O=C(Nc1cn(Cc2cccc(C(F)(F)F)c2)cn1)c1cnc(CO)c(Br)c1 [Example 32]	68	< 10
O=C(Nc1cn(Cc2cccc(Cl)c2)cn1)c1ccc(CO)nc1 [Example 11]		56
O=C(Nc1cn(Cc2ccc(C(F)(F)F)c(F)c2)cn1)c1cnc(CO)c(C(F)F)c1 [Example 74, 5-(difluoromethyl)-N-{1-[3-fluoro-4-(trifluoromethyl)benzyl]-1H-imidazol-4-yl}-6-(hydroxymethyl)nicotinamide]	670	380
Cc1nc(CO)ccc1C(=O)Nc1cn(Cc2cccc(C(F)(F)F)c2)cn1 [Example 34]		7390
[2H]C([2H])(O)c1ccc(C(=O)Nc2cn(Cc3cccc(C(F)(F)F)c3)cn2)cn1 [Example 4, 6-[Hydroxy (^2H2)methyl]-N-{1-[3-(trifluoromethyl)benzyl]-1H-imidazol-4-yl}nicotinamide]	61	< 10
O=C(Nc1cn(Cc2cccc(C(F)(F)F)c2)cn1)c1ccc(CO)cn1 [Example 1, 5-(Hydroxymethyl)-N-{1-[3-(trifluoromethyl)benzyl]-1H-imidazol-4-yl}picolinamide]	350	30
Cc1sc(C(=O)Nc2cn(Cc3cc(F)c(F)c(F)c3)cn2)nc1CO [Example 47, 4-(Hydroxymethyl)-5-methyl-N-[1-(3,4,5-trifluorobenzyl)-1H-imidazol-4-yl]-1,3-thiazole-2-carboxamide]	5460	669
O=C(Nc1cn(Cc2cc(F)c(F)c(F)c2)cn1)c1ccc(CO)nc1 [Example 10, 6-(Hydroxymethyl)-N-[1-(3,4,5-trifluorobenzyl)-1H-imidazol-4-yl]nicotinamide]	7	7
CC(O)c1ccc(C(=O)Nc2cn(Cc3cccc(C(F)(F)F)c3)cn2)cn1 (stereo not drawn) [Example 6, 6-(1-Hydroxyethyl)-N-{1-[3-(trifluoromethyl)benzyl]-1H-imidazol-4-yl}nicotinamide]	6970	3650
CCOCc1ccc(C(=O)Nc2cn(Cc3cc(F)c(F)c(F)c3)cn2)cn1 [Example 16]	1450	892
O=C(Nc1cn(Cc2cccc(C(F)(F)F)c2)cn1)c1cnc(CO)c(Cl)c1 [Example 31]	< 10	< 10
Cc1cccc(Cn2cnc(NC(=O)c3cnc(CO)c(C(F)F)c3)c2)c1 [Example 63, 5-(difluoromethyl)-6-(hydroxymethyl)-N-[1-(3-methylbenzyl)-1H-imidazol-4-yl]nicotinamide]	600	690
O=C(Nc1ccc2nc(CO)ccc2c1)c1cn(Cc2cc(F)c(F)c(F)c2)cn1 [Example 23, N-[2-(hydroxymethyl)quinolin-6-yl]-1-(3,4,5-trifluorobenzyl)-1H-imidazole-4-carboxamide]	84	79

Reference: US11661397B2, “1,4-disubstituted imidazole derivative” (Sumitomo Pharma Co., Ltd., priority 2015, dated 2023)
